Reference: the kinase profiling compilation of Christmann-Franck et al. (2016)

How the values were obtained:
Assay in all cases: radiometric filter-binding kinase assay, Kinase HotSpot
Settings in all cases: compound 0.5 µM; ATP 10 µM
ACVR1 (human) = ACVR1 (human) (UniProt Q04771)
AURKC (human) = AURKC (human) (UniProt Q9UQB9)
CAMK2G (human) = CAMK2G (human) (UniProt Q13555)
CDC42BPA (human) = CDC42BPA (human) (UniProt Q5VT25)
CDK2 CCNA2 (human) = CDK2 CCNA2 (human) (UniProt P24941+P20248)
CDK2 CCNE1 (human) = CDK2 CCNE1 (human) (UniProt P24941+P24864)
CHEK2 (human) = CHEK2 (human) (UniProt O96017)
CLK4 (human) = CLK4 (human) (UniProt Q9HAZ1)
CSNK1G2 (human) = CSNK1G2 (human) (UniProt P78368)
Sequence of CSNK1G2 (human) (P78368 whole entry, looked up): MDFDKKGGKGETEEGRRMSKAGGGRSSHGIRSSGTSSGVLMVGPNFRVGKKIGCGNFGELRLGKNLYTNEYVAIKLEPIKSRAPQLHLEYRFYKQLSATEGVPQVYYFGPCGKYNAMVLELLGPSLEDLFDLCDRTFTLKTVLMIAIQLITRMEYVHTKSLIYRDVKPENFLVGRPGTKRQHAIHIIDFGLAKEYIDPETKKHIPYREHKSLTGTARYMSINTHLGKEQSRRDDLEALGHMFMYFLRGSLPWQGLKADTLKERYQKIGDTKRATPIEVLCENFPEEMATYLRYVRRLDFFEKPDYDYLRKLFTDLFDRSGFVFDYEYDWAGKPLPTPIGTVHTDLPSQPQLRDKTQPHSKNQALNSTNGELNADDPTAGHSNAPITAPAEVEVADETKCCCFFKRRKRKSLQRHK

DAPK2 (human) = DAPK2 (human) (UniProt Q9UIK4)
EPHA3 (human) = EPHA3 (human) (UniProt P29320)
Sequence of EPHA3 (human) (P29320 whole entry, looked up): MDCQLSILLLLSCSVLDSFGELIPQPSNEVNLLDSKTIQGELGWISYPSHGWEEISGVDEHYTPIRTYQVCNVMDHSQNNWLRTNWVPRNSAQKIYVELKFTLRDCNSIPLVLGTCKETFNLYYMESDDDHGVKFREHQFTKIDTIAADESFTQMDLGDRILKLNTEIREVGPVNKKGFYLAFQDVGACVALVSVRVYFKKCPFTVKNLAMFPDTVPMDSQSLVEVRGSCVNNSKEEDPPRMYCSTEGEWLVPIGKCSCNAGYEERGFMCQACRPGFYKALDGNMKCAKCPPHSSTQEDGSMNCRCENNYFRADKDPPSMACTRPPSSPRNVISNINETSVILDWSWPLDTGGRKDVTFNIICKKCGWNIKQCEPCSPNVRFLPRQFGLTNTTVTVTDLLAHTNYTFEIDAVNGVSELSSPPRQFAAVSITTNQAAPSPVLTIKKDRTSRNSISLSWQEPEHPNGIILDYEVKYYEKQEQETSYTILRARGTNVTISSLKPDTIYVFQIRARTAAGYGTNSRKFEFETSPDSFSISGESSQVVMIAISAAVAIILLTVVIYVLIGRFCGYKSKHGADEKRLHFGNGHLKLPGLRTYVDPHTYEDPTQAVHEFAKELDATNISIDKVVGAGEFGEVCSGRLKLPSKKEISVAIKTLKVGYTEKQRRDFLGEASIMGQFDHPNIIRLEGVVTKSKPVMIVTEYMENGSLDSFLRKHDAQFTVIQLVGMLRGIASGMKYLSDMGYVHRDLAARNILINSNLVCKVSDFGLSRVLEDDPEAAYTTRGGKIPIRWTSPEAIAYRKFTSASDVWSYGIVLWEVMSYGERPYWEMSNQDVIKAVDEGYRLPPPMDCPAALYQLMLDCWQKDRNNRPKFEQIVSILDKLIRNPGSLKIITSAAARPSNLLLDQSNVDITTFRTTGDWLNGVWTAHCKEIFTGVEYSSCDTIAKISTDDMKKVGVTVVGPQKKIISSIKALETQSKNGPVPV

EPHA6 (human) = EPHA6 (human) (UniProt Q9UF33)
FES (human) = FES (human) (UniProt P07332)
FGFR4 (human) = FGFR4 (human) (UniProt P22455)
HIPK1 (human) = HIPK1 (human) (UniProt Q86Z02)
HIPK2 (human) = HIPK2 (human) (UniProt Q9H2X6)
HIPK3 (human) = HIPK3 (human) (UniProt Q9H422)
INSR (human) = INSR (human) (UniProt P06213)
INSRR (human) = INSRR (human) (UniProt P14616)
KDR (human) = KDR (human) (UniProt P35968)
LRRK2 (human) = LRRK2 (human) (UniProt Q5S007)
MAP3K5 (human) = MAP3K5 (human) (UniProt Q99683)
MAPK3 (human) = MAPK3 (human) (UniProt P27361)
Sequence of MAPK3 (human) (P27361 whole entry, looked up): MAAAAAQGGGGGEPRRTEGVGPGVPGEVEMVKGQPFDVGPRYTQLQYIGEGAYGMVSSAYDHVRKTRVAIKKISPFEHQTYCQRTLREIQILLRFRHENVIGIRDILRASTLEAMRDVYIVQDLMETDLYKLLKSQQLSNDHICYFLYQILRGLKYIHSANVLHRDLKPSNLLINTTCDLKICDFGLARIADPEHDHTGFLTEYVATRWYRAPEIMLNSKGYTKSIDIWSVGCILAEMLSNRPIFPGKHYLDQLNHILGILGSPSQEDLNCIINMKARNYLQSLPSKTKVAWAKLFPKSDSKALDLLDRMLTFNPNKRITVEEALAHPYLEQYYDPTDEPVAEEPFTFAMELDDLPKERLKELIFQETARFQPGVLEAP

MARK4 (human) = MARK4 (human) (UniProt Q96L34)
Sequence of MARK4 (human) (Q96L34 whole entry, looked up): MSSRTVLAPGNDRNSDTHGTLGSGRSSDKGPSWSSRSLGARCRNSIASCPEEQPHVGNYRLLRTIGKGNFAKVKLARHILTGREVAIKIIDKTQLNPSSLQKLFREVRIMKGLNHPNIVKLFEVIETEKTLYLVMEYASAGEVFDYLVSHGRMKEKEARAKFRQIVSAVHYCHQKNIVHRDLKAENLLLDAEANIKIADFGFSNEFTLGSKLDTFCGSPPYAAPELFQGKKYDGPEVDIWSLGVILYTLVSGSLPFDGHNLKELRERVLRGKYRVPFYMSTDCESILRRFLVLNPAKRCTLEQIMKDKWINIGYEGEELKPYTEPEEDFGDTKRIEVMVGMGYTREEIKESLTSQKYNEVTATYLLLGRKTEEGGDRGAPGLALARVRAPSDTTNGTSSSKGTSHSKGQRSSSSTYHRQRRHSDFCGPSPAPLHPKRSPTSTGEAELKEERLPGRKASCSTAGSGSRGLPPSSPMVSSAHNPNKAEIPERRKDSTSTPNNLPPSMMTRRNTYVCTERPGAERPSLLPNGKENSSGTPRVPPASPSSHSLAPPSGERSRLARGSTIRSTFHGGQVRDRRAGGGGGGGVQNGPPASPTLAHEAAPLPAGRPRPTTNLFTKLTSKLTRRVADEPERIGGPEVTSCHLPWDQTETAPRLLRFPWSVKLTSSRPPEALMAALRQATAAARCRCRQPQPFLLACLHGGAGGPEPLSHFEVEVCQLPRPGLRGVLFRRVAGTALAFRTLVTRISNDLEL

MELK (human) = MELK (human) (UniProt Q14680)
MKNK2 (human) = MKNK2 (human) (UniProt Q9HBH9)
MYLK2 (human) = MYLK2 (human) (UniProt Q9H1R3)
NEK6 (human) = NEK6 (human) (UniProt Q9HC98)
Sequence of NEK6 (human) (Q9HC98 whole entry, looked up): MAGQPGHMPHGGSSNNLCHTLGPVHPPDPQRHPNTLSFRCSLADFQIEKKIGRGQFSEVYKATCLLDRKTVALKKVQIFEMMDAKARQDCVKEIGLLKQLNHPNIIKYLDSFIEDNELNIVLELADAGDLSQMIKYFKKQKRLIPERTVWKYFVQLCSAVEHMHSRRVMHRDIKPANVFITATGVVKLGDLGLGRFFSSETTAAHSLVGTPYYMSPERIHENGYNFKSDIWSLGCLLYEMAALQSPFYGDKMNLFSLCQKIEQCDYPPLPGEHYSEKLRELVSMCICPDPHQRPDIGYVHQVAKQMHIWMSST

PAK3 (human) = PAK3 (human) (UniProt O75914)
PDGFRB (human) = PDGFRB (human) (UniProt P09619)
PKN1 (human) = PKN1 (human) (UniProt Q16512)
PRKACG (human) = PRKACG (human) (UniProt P22612)
Sequence of PRKACG (human) (P22612 whole entry, looked up): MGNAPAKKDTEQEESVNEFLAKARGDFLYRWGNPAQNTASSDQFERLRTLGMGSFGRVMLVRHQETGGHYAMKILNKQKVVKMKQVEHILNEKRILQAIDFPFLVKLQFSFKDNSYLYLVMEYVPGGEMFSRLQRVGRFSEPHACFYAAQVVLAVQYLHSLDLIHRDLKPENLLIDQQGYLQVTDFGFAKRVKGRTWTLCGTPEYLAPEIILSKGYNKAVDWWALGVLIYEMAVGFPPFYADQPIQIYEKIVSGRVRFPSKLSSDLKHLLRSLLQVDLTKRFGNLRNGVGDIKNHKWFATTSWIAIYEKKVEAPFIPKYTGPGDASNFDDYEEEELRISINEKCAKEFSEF

ROCK2 (human) = ROCK2 (human) (UniProt O75116)
RPS6KA6 KD1 KD2 (human) = RPS6KA6 KD1 KD2 (human) (UniProt Q9UK32)
STK39 (human) = STK39 (human) (UniProt Q9UEW8)
TEK (human) = TEK (human) (UniProt Q02763)
TGFBR1 (human) = TGFBR1 (human) (UniProt P36897)
Sequence of TGFBR1 (human) (P36897 whole entry, looked up): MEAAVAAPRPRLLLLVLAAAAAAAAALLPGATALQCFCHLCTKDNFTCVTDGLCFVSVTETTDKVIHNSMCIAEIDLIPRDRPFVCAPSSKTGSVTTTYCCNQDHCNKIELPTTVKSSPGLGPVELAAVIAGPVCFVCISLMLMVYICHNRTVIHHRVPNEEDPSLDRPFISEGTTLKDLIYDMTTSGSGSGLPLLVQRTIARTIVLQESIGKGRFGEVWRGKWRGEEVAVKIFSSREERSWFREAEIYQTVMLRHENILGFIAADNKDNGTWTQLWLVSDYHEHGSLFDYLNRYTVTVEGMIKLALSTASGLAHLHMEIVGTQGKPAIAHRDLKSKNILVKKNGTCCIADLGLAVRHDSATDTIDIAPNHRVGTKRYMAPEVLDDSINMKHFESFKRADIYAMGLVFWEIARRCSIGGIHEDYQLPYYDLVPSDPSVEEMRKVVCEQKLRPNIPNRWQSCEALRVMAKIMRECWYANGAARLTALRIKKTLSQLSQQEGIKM

TLK2 (human) = TLK2 (human) (UniProt Q86UE8)
Sequence of TLK2 (human) (Q86UE8 whole entry, looked up): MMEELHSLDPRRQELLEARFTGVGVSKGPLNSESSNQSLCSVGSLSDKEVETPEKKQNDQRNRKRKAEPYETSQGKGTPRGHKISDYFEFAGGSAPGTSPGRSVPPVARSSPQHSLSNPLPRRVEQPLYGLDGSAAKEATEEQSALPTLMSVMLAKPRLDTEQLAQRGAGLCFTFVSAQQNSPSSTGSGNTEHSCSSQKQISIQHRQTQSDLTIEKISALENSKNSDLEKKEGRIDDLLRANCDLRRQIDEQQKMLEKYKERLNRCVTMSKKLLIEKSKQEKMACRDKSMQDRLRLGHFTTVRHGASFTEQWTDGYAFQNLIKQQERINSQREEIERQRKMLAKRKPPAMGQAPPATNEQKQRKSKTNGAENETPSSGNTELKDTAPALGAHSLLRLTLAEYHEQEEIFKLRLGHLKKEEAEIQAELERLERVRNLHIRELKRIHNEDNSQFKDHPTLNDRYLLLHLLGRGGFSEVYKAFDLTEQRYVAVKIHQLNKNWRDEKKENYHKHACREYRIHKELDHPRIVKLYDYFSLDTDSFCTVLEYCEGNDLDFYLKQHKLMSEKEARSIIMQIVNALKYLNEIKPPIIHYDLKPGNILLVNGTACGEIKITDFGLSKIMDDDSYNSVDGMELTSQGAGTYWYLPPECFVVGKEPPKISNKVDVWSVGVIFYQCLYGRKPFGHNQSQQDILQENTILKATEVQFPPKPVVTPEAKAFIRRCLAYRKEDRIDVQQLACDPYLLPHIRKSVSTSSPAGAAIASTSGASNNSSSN

TNK2 (human) = TNK2 (human) (UniProt Q07912)
ULK1 (human) = ULK1 (human) (UniProt O75385)

Sequence of CDK2 CCNA2 (human) (P20248 whole entry, looked up, other chains not shown): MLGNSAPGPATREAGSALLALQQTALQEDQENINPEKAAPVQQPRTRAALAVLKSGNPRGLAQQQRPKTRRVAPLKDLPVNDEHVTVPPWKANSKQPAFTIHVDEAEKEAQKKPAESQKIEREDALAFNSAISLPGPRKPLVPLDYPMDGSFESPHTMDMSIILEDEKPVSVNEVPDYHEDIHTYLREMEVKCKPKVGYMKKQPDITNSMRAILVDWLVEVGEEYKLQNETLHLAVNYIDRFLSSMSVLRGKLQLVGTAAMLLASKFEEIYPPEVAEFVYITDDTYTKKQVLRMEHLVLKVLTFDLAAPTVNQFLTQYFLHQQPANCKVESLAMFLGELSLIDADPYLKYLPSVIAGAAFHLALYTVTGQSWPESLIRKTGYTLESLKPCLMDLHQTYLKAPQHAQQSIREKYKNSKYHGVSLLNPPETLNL

Row | Structure (SMILES) | residual activity (ACVR1 (human)) [%] | residual activity (AURKC (human)) [%] | residual activity (CAMK2G (human)) [%] | residual activity (CDC42BPA (human)) [%] | residual activity (CDK2 CCNA2 (human)) [%] | residual activity (CDK2 CCNE1 (human)) [%] | residual activity (CHEK2 (human)) [%] | residual activity (CLK4 (human)) [%] | residual activity (CSNK1G2 (human)) [%] | residual activity (DAPK2 (human)) [%] | residual activity (EPHA3 (human)) [%] | residual activity (EPHA6 (human)) [%] | residual activity (FES (human)) [%] | residual activity (FGFR4 (human)) [%] | residual activity (HIPK1 (human)) [%] | residual activity (HIPK2 (human)) [%] | residual activity (HIPK3 (human)) [%] | residual activity (INSR (human)) [%] | residual activity (INSRR (human)) [%] | residual activity (KDR (human)) [%] | other results
1 | CNc1cc2c(Nc3cccc(Br)c3)ncnc2cn1 | 104 | 85.9 | 105 | 95.2 | 106 | 88.6 | 85.7 | 60.9 | 95.8 | 136 | 96.1 | 70 | 96.9 | 93.7 | 96.5 | 98.4 | 94.1 | 100 | 98.2 | 77.6 | residual activity (LRRK2 (human)): 67%; residual activity (MAP3K5 (human)): 94.6%; residual activity (MAPK3 (human)): 97.3%; residual activity (MARK4 (human)): 84.5%; residual activity (MELK (human)): 91.6%; residual activity (MKNK2 (human)): 32.3%; residual activity (MYLK2 (human)): 97.3%; residual activity (NEK6 (human)): 89.8%; residual activity (PAK3 (human)): 98.8%; residual activity (PDGFRB (human)): 86.4%; residual activity (PKN1 (human)): 103%; residual activity (PRKACG (human)): 115%; residual activity (ROCK2 (human)): 99.5%; residual activity (RPS6KA6 KD1 KD2 (human)): 81.8%; residual activity (STK39 (human)): 94%; residual activity (TEK (human)): 87.9%; residual activity (TGFBR1 (human)): 97.7%; residual activity (TLK2 (human)): 114%; residual activity (TNK2 (human)): 30.3%; residual activity (ULK1 (human)): 98.8%
2 | O=C1NC(=O)c2c1c1c3ccccc3n3c1c1c2c2ccccc2n1C1CCC3O1 | 85.8 | 36.5 | 8.36 | 84 | 15.6 | 28.5 | 13 | 20.3 | 81.8 | 39.4 | 96.5 | 63.9 | 42.1 | 70.4 | 93.6 | 32.6 | 49.9 | 17.2 | 7.16 | 4.55 | residual activity (LRRK2 (human)): 1.91%; residual activity (MAP3K5 (human)): 56.2%; residual activity (MAPK3 (human)): 102%; residual activity (MARK4 (human)): 5.31%; residual activity (MELK (human)): 7.13%; residual activity (MKNK2 (human)): 9.71%; residual activity (MYLK2 (human)): 7.76%; residual activity (NEK6 (human)): 93.1%; residual activity (PAK3 (human)): 41.7%; residual activity (PDGFRB (human)): 19.1%; residual activity (PKN1 (human)): 2.68%; residual activity (PRKACG (human)): 39.8%; residual activity (ROCK2 (human)): 73.7%; residual activity (RPS6KA6 KD1 KD2 (human)): 1.08%; residual activity (STK39 (human)): 88.3%; residual activity (TEK (human)): 94.1%; residual activity (TGFBR1 (human)): 110%; residual activity (TLK2 (human)): 14.1%; residual activity (TNK2 (human)): 2.39%; residual activity (ULK1 (human)): 73.1%
3 | CCCC(=O)Oc1ccc2[nH]c(C(=O)c3cc4ccccc4[nH]3)cc2c1 | 100 | 94.9 | 99.4 | 98 | 88.9 | 92.1 | 99 | 90.2 | 95.5 | 88.4 | 96.8 | 88 | 97.8 | 90.9 | 101 | 92.1 | 94.7 | 101 | 97.9 | 90.4 | residual activity (LRRK2 (human)): 101%; residual activity (MAP3K5 (human)): 103%; residual activity (MAPK3 (human)): 87.9%; residual activity (MARK4 (human)): 84.1%; residual activity (MELK (human)): 96.4%; residual activity (MKNK2 (human)): 105%; residual activity (MYLK2 (human)): 98.2%; residual activity (NEK6 (human)): 101%; residual activity (PAK3 (human)): 102%; residual activity (PDGFRB (human)): 91.2%; residual activity (PKN1 (human)): 94.6%; residual activity (PRKACG (human)): 99.8%; residual activity (ROCK2 (human)): 103%; residual activity (RPS6KA6 KD1 KD2 (human)): 95.4%; residual activity (STK39 (human)): 117%; residual activity (TEK (human)): 100%; residual activity (TGFBR1 (human)): 101%; residual activity (TLK2 (human)): 97.1%; residual activity (TNK2 (human)): 77.7%; residual activity (ULK1 (human)): 103%
4 | Nc1ccc2ncnc(NCCc3ccc(Oc4ccccc4)cc3)c2c1 | 91.8 | 96 | 118 | 102 | 95.8 | 95 | 91.7 | 94.6 | 100 | 80.4 | 102 | 92.8 | 99.6 | 104 | 104 | 110 | 98.6 | 103 | 98.7 | 91.7 | residual activity (LRRK2 (human)): 98.5%; residual activity (MAP3K5 (human)): 105%; residual activity (MAPK3 (human)): 105%; residual activity (MARK4 (human)): 105%; residual activity (MELK (human)): 96.8%; residual activity (MKNK2 (human)): 104%; residual activity (MYLK2 (human)): 97.6%; residual activity (NEK6 (human)): 103%; residual activity (PAK3 (human)): 102%; residual activity (PDGFRB (human)): 105%; residual activity (PKN1 (human)): 105%; residual activity (PRKACG (human)): 110%; residual activity (ROCK2 (human)): 90.7%; residual activity (RPS6KA6 KD1 KD2 (human)): 103%; residual activity (STK39 (human)): 83.9%; residual activity (TEK (human)): 99%; residual activity (TGFBR1 (human)): 97.7%; residual activity (TLK2 (human)): 92.8%; residual activity (TNK2 (human)): 102%; residual activity (ULK1 (human)): 105%
5 | O=C1Nc2ccc(Cl)cc2/C1=C/c1cc(Cl)c(O)c(Cl)c1 | 130 | 78.6 | 119 | 96.1 | 99.5 | 90 | 70.2 | 60.7 | 83.5 | 135 | 82.5 | 72.8 | 93.7 | 98 | 102 | 122 | 91.5 | 99.2 | 100 | 86.1 | residual activity (LRRK2 (human)): 11%; residual activity (MAP3K5 (human)): 106%; residual activity (MAPK3 (human)): 88.2%; residual activity (MARK4 (human)): 78.4%; residual activity (MELK (human)): 83.6%; residual activity (MKNK2 (human)): 88.7%; residual activity (MYLK2 (human)): 71.5%; residual activity (NEK6 (human)): 104%; residual activity (PAK3 (human)): 94.3%; residual activity (PDGFRB (human)): 76.9%; residual activity (PKN1 (human)): 93%; residual activity (PRKACG (human)): 99.2%; residual activity (ROCK2 (human)): 90.6%; residual activity (RPS6KA6 KD1 KD2 (human)): 78.5%; residual activity (STK39 (human)): 97%; residual activity (TEK (human)): 93%; residual activity (TGFBR1 (human)): 102%; residual activity (TLK2 (human)): 105%; residual activity (TNK2 (human)): 32.4%; residual activity (ULK1 (human)): 95%
